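48-hour exposure; five concentrations; linearly interpolated endpoints. At the TGI there is no net growth.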
What was measured:
Experiment in all cases: NCI anticancer screen, dose series, 48 h
RXF 393 renal = tested on: RXF 393 renal
A498 renal = tested on: A498 renal
U251 CNS = tested on: U251 CNS
OVCAR-3 ovarian = tested on: OVCAR-3 ovarian
CCRF-CEM leukemia = tested on: CCRF-CEM leukemia
M14 melanoma = tested on: M14 melanoma
NCI-H460 lung = tested on: NCI-H460 lung
SW-620 colon = tested on: SW-620 colon
NCI-H23 lung = tested on: NCI-H23 lung
A549 NSCLC = tested on: A549 NSCLC
SR leukemia = tested on: SR leukemia
SF-539 CNS = tested on: SF-539 CNS
SNB-75 CNS = tested on: SNB-75 CNS
LOX IMVI melanoma = tested on: LOX IMVI melanoma
OVCAR-4 ovarian = tested on: OVCAR-4 ovarian
HS 578T breast = tested on: HS 578T breast
HCT-15 colon = tested on: HCT-15 colon
SF-268 CNS = tested on: SF-268 CNS
MALME-3M melanoma = tested on: MALME-3M melanoma
KM12 colon = tested on: KM12 colon
MDA-N = tested on: MDA-N
T-47D breast = tested on: T-47D breast
HT29 colon = tested on: HT29 colon
HOP-62 NSCLC = tested on: HOP-62 NSCLC
SK-MEL-2 melanoma = tested on: SK-MEL-2 melanoma
RPMI-8226 leukemia = tested on: RPMI-8226 leukemia
786-0 renal = tested on: 786-0 renal
NCI-H522 lung = tested on: NCI-H522 lung
HL-60(TB) leukemia = tested on: HL-60(TB) leukemia
HCT-116 colon = tested on: HCT-116 colon
SK-MEL-5 melanoma = tested on: SK-MEL-5 melanoma
UACC-62 melanoma = tested on: UACC-62 melanoma
TK-10 renal = tested on: TK-10 renal
UO-31 renal = tested on: UO-31 renal
NCI/ADR-RES ovarian = tested on: NCI/ADR-RES ovarian
MDA-MB-435 = tested on: MDA-MB-435
SN12C renal = tested on: SN12C renal
MOLT-4 leukemia = tested on: MOLT-4 leukemia
EKVX NSCLC = tested on: EKVX NSCLC
SF-295 CNS = tested on: SF-295 CNS
MCF7 breast = tested on: MCF7 breast
HOP-92 NSCLC = tested on: HOP-92 NSCLC
PC-3 prostate = tested on: PC-3 prostate
DU-145 prostate = tested on: DU-145 prostate
UACC-257 melanoma = tested on: UACC-257 melanoma
NCI-H226 lung = tested on: NCI-H226 lung
ACHN renal = tested on: ACHN renal
SK-MEL-28 melanoma = tested on: SK-MEL-28 melanoma
IGROV1 ovarian = tested on: IGROV1 ovarian
K-562 leukemia = tested on: K-562 leukemia
HCC-2998 colon = tested on: HCC-2998 colon
OVCAR-5 ovarian = tested on: OVCAR-5 ovarian
CAKI-1 renal = tested on: CAKI-1 renal
SNB-19 CNS = tested on: SNB-19 CNS
SK-OV-3 ovarian = tested on: SK-OV-3 ovarian
BT-549 breast = tested on: BT-549 breast
OVCAR-8 ovarian = tested on: OVCAR-8 ovarian
COLO 205 colon = tested on: COLO 205 colon
MDA-MB-231 breast = tested on: MDA-MB-231 breast

`CC(=O)CC1(O)C(=O)c2c(Br)sc(Br)c2C1=O` was tested, and the TGI (RXF 393 renal) was 51.7 µM, the TGI (A498 renal) was greater than 100 µM and the TGI (U251 CNS) was 53.5 µM. The TGI (OVCAR-3 ovarian) was 31.7 µM, the TGI (CCRF-CEM leukemia) was 43 µM and the TGI (M14 melanoma) was 33.1 µM. The TGI (NCI-H460 lung) was greater than 100 µM, the TGI (SW-620 colon) was 55.6 µM and the TGI (NCI-H23 lung) was 39.2 µM. The TGI (A549 NSCLC) was greater than 100 µM, the TGI (SR leukemia) was 49.9 µM and the TGI (SF-539 CNS) was 49.3 µM. For the same compound, the TGI (SNB-75 CNS) was greater than 100 µM, the TGI (LOX IMVI melanoma) was 35 µM and the TGI (OVCAR-4 ovarian) was 36.4 µM. For the same compound, the TGI (HS 578T breast) was 95 µM, the TGI (HCT-15 colon) was 45.7 µM and the TGI (SF-268 CNS) was 82.4 µM. For the same compound, the TGI (MALME-3M melanoma) was 33.2 µM, the TGI (KM12 colon) was greater than 100 µM and the TGI (MDA-N) was 45.9 µM. It also gave a TGI (T-47D breast) of 83.9 µM, a TGI (HT29 colon) of 53.8 µM and a TGI (HOP-62 NSCLC) of 79.4 µM. The TGI (SK-MEL-2 melanoma) was 46.7 µM, the TGI (RPMI-8226 leukemia) was greater than 100 µM and the TGI (786-0 renal) was 57.6 µM. It also gave a TGI (NCI-H522 lung) of 36.4 µM, a TGI (HL-60(TB) leukemia) of 50.5 µM and a TGI (HCT-116 colon) of 35.8 µM. It also gave a TGI (SK-MEL-5 melanoma) of 34.2 µM, a TGI (UACC-62 melanoma) of 46 µM and a TGI (TK-10 renal) of 56.8 µM. For the same compound, the TGI (UO-31 renal) was 50.7 µM, the TGI (NCI/ADR-RES ovarian) was greater than 100 µM and the TGI (MDA-MB-435) was 43.6 µM. It also gave a TGI (SN12C renal) of 35.4 µM, a TGI (MOLT-4 leukemia) greater than 100 µM and a TGI (EKVX NSCLC) of 55.8 µM. For the same compound, the TGI (SF-295 CNS) was greater than 100 µM, the TGI (MCF7 breast) was greater than 100 µM and the TGI (HOP-92 NSCLC) was 34.7 µM. For the same compound, the TGI (PC-3 prostate) was 45.4 µM, the TGI (DU-145 prostate) was greater than 100 µM and the TGI (UACC-257 melanoma) was 41.4 µM. For the same compound, the TGI (NCI-H226 lung) was greater than 100 µM, the TGI (ACHN renal) was greater than 100 µM and the TGI (SK-MEL-28 melanoma) was 46 µM. For the same compound, the TGI (IGROV1 ovarian) was 35.9 µM, the TGI (K-562 leukemia) was 91 µM and the TGI (HCC-2998 colon) was 32.7 µM. The TGI (OVCAR-5 ovarian) was 33.9 µM, the TGI (CAKI-1 renal) was 32.1 µM and the TGI (SNB-19 CNS) was greater than 100 µM. For the same compound, the TGI (SK-OV-3 ovarian) was greater than 100 µM, the TGI (BT-549 breast) was 35.8 µM and the TGI (OVCAR-8 ovarian) was 48 µM. It also gave a TGI (COLO 205 colon) of 36.9 µM.
In the case of `C[C@]12CC[C@@H]3c4ccc(OS(N)(=O)=O)cc4CC[C@H]3[C@@H]1CCC2=O`, the TGI (RXF 393 renal) is reported as greater than 100 µM, the TGI (MDA-MB-231 breast) is reported as greater than 100 µM and the TGI (A498 renal) is reported as greater than 100 µM. For the same compound, the TGI (U251 CNS) was greater than 100 µM, the TGI (OVCAR-3 ovarian) was greater than 100 µM and the TGI (CCRF-CEM leukemia) was greater than 100 µM. For the same compound, the TGI (M14 melanoma) was greater than 100 µM, the TGI (NCI-H460 lung) was greater than 100 µM and the TGI (SW-620 colon) was greater than 100 µM. The TGI (NCI-H23 lung) was greater than 100 µM, the TGI (A549 NSCLC) was greater than 100 µM and the TGI (SF-539 CNS) was greater than 100 µM. It also gave a TGI (SNB-75 CNS) greater than 100 µM, a TGI (LOX IMVI melanoma) greater than 100 µM and a TGI (OVCAR-4 ovarian) greater than 100 µM. For the same compound, the TGI (HS 578T breast) was greater than 100 µM, the TGI (HCT-15 colon) was greater than 100 µM and the TGI (SF-268 CNS) was greater than 100 µM. It also gave a TGI (MALME-3M melanoma) greater than 100 µM, a TGI (KM12 colon) greater than 100 µM and a TGI (MDA-N) greater than 100 µM. The TGI (T-47D breast) was greater than 100 µM, the TGI (HT29 colon) was greater than 100 µM and the TGI (HOP-62 NSCLC) was greater than 100 µM. It also gave a TGI (SK-MEL-2 melanoma) greater than 100 µM, a TGI (RPMI-8226 leukemia) greater than 100 µM and a TGI (786-0 renal) greater than 100 µM. It also gave a TGI (HL-60(TB) leukemia) greater than 100 µM, a TGI (HCT-116 colon) greater than 100 µM and a TGI (SK-MEL-5 melanoma) of 38.8 µM. It also gave a TGI (UACC-62 melanoma) greater than 100 µM, a TGI (TK-10 renal) greater than 100 µM and a TGI (UO-31 renal) greater than 100 µM. The TGI (NCI/ADR-RES ovarian) was greater than 100 µM, the TGI (MDA-MB-435) was greater than 100 µM and the TGI (SN12C renal) was greater than 100 µM. It also gave a TGI (EKVX NSCLC) greater than 100 µM, a TGI (SF-295 CNS) greater than 100 µM and a TGI (MCF7 breast) greater than 100 µM. It also gave a TGI (HOP-92 NSCLC) greater than 100 µM, a TGI (DU-145 prostate) greater than 100 µM and a TGI (UACC-257 melanoma) greater than 100 µM. The TGI (NCI-H226 lung) was greater than 100 µM, the TGI (ACHN renal) was greater than 100 µM and the TGI (SK-MEL-28 melanoma) was greater than 100 µM. The TGI (IGROV1 ovarian) was greater than 100 µM, the TGI (K-562 leukemia) was greater than 100 µM and the TGI (HCC-2998 colon) was greater than 100 µM. For the same compound, the TGI (OVCAR-5 ovarian) was greater than 100 µM, the TGI (CAKI-1 renal) was greater than 100 µM and the TGI (SNB-19 CNS) was greater than 100 µM. For the same compound, the TGI (SK-OV-3 ovarian) was greater than 100 µM, the TGI (BT-549 breast) was greater than 100 µM and the TGI (OVCAR-8 ovarian) was greater than 100 µM. It also gave a TGI (COLO 205 colon) greater than 100 µM.

Source: PubChem BioAssay (NCI)
